# Data as given in ChEMBL document CHEMBL1201861, “Genomics of Drug Sensitity in Cancer screening data, Wellcome Trust Sanger Institute”.
# Experiments:
# Experiment in all cases: cells
# Assay type in all cases: functional, cell-based, Homo sapiens
# SW1710 = test system: SW1710;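 further: growth inhibition of SW1710 cells, determined with a cell viability assay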
# Description: SANGER: Inhibition of human SW1710 cell growth in a cell viability assay.
# HPAF-II = test system: HPAF-II;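 further: growth inhibition of HPAF-II cells, read out with a cell viability assay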
# Description: SANGER: Inhibition of human HPAF-II cell growth in a cell viability assay.
# NCI-H2087 = test system: NCI-H2087;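 further: growth inhibition determined with a cell viability readout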
# Description: SANGER: Inhibition of human NCI-H2087 cell growth in a cell viability assay.
# KP-N-YN = test system: KP-N-YN;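 further: growth inhibition of KP-N-YN cells, read out with a cell viability assay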
# Description: SANGER: Inhibition of human KP-N-YN cell growth in a cell viability assay.
# NCI-H889 = test system: NCI-H889;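 further: cell growth inhibition of the cell line, read out with a viability assay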
# Description: SANGER: Inhibition of human NCI-H889 cell growth in a cell viability assay.
# MHH-ES-1 = test system: MHH-ES-1;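 further: cell growth inhibition measured by a cell viability assay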
# Description: SANGER: Inhibition of human MHH-ES-1 cell growth in a cell viability assay.
# LU-165 = test system: LU-165
# Description: SANGER: Inhibition of human LU-165 cell growth in a cell viability assay.
# CAL-27 = test system: CAL-27;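 further: Viability-based readout, IC50 reflecting inhibition of CAL-27 cell growth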
# Description: SANGER: Inhibition of human CAL-27 cell growth in a cell viability assay.
# KYSE-410 = test system: KYSE-410;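 further: growth inhibition of KYSE-410 cells, measured through a cell viability readout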
# Description: SANGER: Inhibition of human KYSE-410 cell growth in a cell viability assay.
# MKN-28 = test system: MKN-28;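 further: cell viability assay read-out, IC50 reflects suppression of growth of human MKN-28 cells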
# Description: SANGER: Inhibition of human MKN28 cell growth in a cell viability assay.
# RO82-W-1 = test system: RO82-W-1;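 further: growth inhibition of human RO82-W-1 cells, measured with a cell viability assay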
# Description: SANGER: Inhibition of human RO82-W-1 cell growth in a cell viability assay.
# Capan-2 = test system: Capan-2;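 further: Capan-2 cell growth inhibition, read out with a viability assay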
# Description: SANGER: Inhibition of human Capan-2 cell growth in a cell viability assay.
# NCI-H1793 = test system: NCI-H1793;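 further: cell growth inhibition, read out by a cell viability assay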
# Description: SANGER: Inhibition of human NCI-H1793 cell growth in a cell viability assay.
# T47D = test system: T47D;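 further: growth inhibition of human T47D cells, measured with a cell viability assay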
# Description: SANGER: Inhibition of human T47D cell growth in a cell viability assay.
# Hs-578T = test system: Hs-578T
# Description: SANGER: Inhibition of human Hs-578-T cell growth in a cell viability assay.
# NCI-H2081 = test system: NCI-H2081;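 further: growth inhibition of human NCI-H2081 cells, read out with a cell viability assay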
# Description: SANGER: Inhibition of human NCI-H2081 cell growth in a cell viability assay.
# CHL-1 = test system: CHL-1;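 further: cell growth inhibition, read out with a cell viability assay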
# Description: SANGER: Inhibition of human CHL-1 cell growth in a cell viability assay.
# NCI-H2196 = test system: NCI-H2196;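 further: cell viability assay used as the readout of growth inhibition in NCI-H2196 cells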
# Description: SANGER: Inhibition of human NCI-H2196 cell growth in a cell viability assay.
# HCT-15 = test system: HCT-15;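 further: cell viability readout, IC50 reflecting suppression of HCT-15 cell growth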
# Description: SANGER: Inhibition of human HCT-15 cell growth in a cell viability assay.
# P12-Ichikawa = test system: P12-Ichikawa
# NB1 = test system: NB1;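 further: reduction of NB1 cell proliferation, read out with a viability assay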
# Description: SANGER: Inhibition of human NB1 cell growth in a cell viability assay.
# SK-MEL-24 = test system: SK-MEL-24;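 further: growth inhibition read out by a cell viability assay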
# Description: SANGER: Inhibition of human SK-MEL-24 cell growth in a cell viability assay.
# CAMA-1 = test system: CAMA-1;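 further: growth inhibition of CAMA-1 cells, read out with a cell viability assay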
# Description: SANGER: Inhibition of human CAMA-1 cell growth in a cell viability assay.
# NCI-H650 = test system: NCI-H650;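 further: growth inhibition of NCI-H650 cells, read out by a viability assay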
# Description: SANGER: Inhibition of human NCI-H650 cell growth in a cell viability assay.
# SNU-16 = test system: SNU-16;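 further: growth inhibition of human SNU-16 cells, determined with a cell viability readout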
# Description: SANGER: Inhibition of human NCI-SNU-16 cell growth in a cell viability assay.
# NCI-H1703 = test system: NCI-H1703;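 further: growth inhibition of NCI-H1703 cells, read out via a cell viability assay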
# Description: SANGER: Inhibition of human NCI-H1703 cell growth in a cell viability assay.
# PC-3 = test system: PC-3;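 further: cell viability assay measuring growth inhibition of PC-3 cells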
# Description: SANGER: Inhibition of human PC-3 cell growth in a cell viability assay.
# SAS = test system: SAS;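 further: growth inhibition of SAS cells, read out with a cell viability assay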
# Description: SANGER: Inhibition of human SAS cell growth in a cell viability assay.
# LU-99A = test system: LU-99A;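 further: growth inhibition of LU-99A cells, read out with a cell viability assay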
# Description: SANGER: Inhibition of human LU-99A cell growth in a cell viability assay.
# BC-3 = test system: BC-3;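 further: cell viability assay measuring growth inhibition of human BC-3 cells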
# Description: SANGER: Inhibition of human BC-3 cell growth in a cell viability assay.
# HLE = test system: HLE;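 further: growth inhibition of human HLE cells, read out by a cell viability assay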
# Description: SANGER: Inhibition of human HLE cell growth in a cell viability assay.
# GP5d = test system: GP5d;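 further: growth inhibition of human GP5d cells, read out with a cell viability assay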
# Description: SANGER: Inhibition of human GP5d cell growth in a cell viability assay.
# LN-405 = test system: LN-405
# Description: SANGER: Inhibition of human LN-405 cell growth in a cell viability assay.
# KMS-12-PE = test system: KMS-12-PE;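 further: growth inhibition of human KMS-12-PE cells, measured with a cell viability assay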
# Description: SANGER: Inhibition of human KMS-12-PE cell growth in a cell viability assay.
# NCI-H2170 = test system: NCI-H2170;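 further: cell viability assay measuring growth inhibition of human NCI-H2170 cancer cells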
# Description: SANGER: Inhibition of human NCI-H2170 cell growth in a cell viability assay.
# HN = test system: HN
# Description: SANGER: Inhibition of human HN cell growth in a cell viability assay.
# SJRH30 = test system: SJRH30;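 further: growth inhibition of human SJRH30 cells, read out with a cell viability assay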
# Description: SANGER: Inhibition of human SJRH30 cell growth in a cell viability assay.
# EHEB = test system: EHEB;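 further: growth inhibition of human EHEB cells, read out with a cell viability assay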
# Description: SANGER: Inhibition of human EHEB cell growth in a cell viability assay.
# HCC1954 = test system: HCC1954;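 further: growth inhibition of human HCC1954 cells, read out with a cell viability assay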
# Description: SANGER: Inhibition of human HCC1954 cell growth in a cell viability assay.
# SAOS-2 = test system: SAOS-2;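 further: growth inhibition of human Saos-2 cells determined by a cell viability assay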
# Description: SANGER: Inhibition of human Saos-2 cell growth in a cell viability assay.
# HGC-27 = test system: HGC-27;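 further: growth inhibition of human HGC-27 cells, read out in a cell viability assay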
# Description: SANGER: Inhibition of human HGC-27 cell growth in a cell viability assay.
# HOS = test system: HOS;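 further: growth inhibition of human HOS cells, read out with a cell viability assay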
# Description: SANGER: Inhibition of human HOS cell growth in a cell viability assay.
# SNU-449 = test system: SNU-449
# Description: SANGER: Inhibition of human SNU-449 cell growth in a cell viability assay.
# SIG-M5 = test system: SIG-M5;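 further: cell viability assay read-out, measuring how strongly growth of cultured human SIG-M5 cells is inhibited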
# Description: SANGER: Inhibition of human SIG-M5 cell growth in a cell viability assay.
molecule,measurement,setting,value
O=C(O)c1ccc(-c2c[nH]c3ncc(-c4ccccc4)cc23)cc1C1CCCC1 [GSK-650394],IC50,"SW1710; Homo sapiens, SW1710",2.7 µM
same,IC50,"HPAF-II; Homo sapiens, HPAF-II",> 16 µM
same,IC50,"NCI-H2087; Homo sapiens, NCI-H2087",13.4 µM
same,IC50,"KP-N-YN; Homo sapiens, KP-N-YN",15.8 µM
same,IC50,"NCI-H889; Homo sapiens, NCI-H889",> 16 µM
same,IC50,"MHH-ES-1; Homo sapiens, MHH-ES-1",13.6 µM
same,IC50,"LU-165; Homo sapiens, LU-165",> 16 µM
same,IC50,"CAL-27; Homo sapiens, CAL-27",5.33 µM
same,IC50,"KYSE-410; Homo sapiens, KYSE-410",> 16 µM
same,IC50,"MKN-28; Homo sapiens, MKN-28",11.7 µM
same,IC50,"RO82-W-1; Homo sapiens, RO82-W-1",> 16 µM
same,IC50,"Capan-2; Homo sapiens, Capan-2",> 16 µM
same,IC50,"NCI-H1793; Homo sapiens, NCI-H1793",> 16 µM
same,IC50,"T47D; Homo sapiens, T47D",> 16 µM
same,IC50,"Hs-578T; Homo sapiens, Hs-578T",> 16 µM
same,IC50,"NCI-H2081; Homo sapiens, NCI-H2081",> 16 µM
same,IC50,"CHL-1; Homo sapiens, CHL-1",3.5 µM
same,IC50,"NCI-H2196; Homo sapiens, NCI-H2196",> 16 µM
same,IC50,"HCT-15; Homo sapiens, HCT-15",3.63 µM
same,IC50,"P12-Ichikawa; Homo sapiens, P12-Ichikawa",> 16 µM
same,IC50,"NB1; Homo sapiens, NB1",> 16 µM
same,IC50,"SK-MEL-24; Homo sapiens, SK-MEL-24",> 16 µM
same,IC50,"CAMA-1; Homo sapiens, CAMA-1",> 16 µM
same,IC50,"NCI-H650; Homo sapiens, NCI-H650",6.64 µM
same,IC50,"SNU-16; Homo sapiens, SNU-16",> 16 µM
same,IC50,"NCI-H1703; Homo sapiens, NCI-H1703",> 16 µM
same,IC50,"PC-3; Homo sapiens, PC-3",> 16 µM
same,IC50,"SAS; Homo sapiens, SAS",> 16 µM
same,IC50,"LU-99A; Homo sapiens, LU-99A",> 16 µM
same,IC50,"BC-3; Homo sapiens, BC-3",1.87 µM
same,IC50,"HLE; Homo sapiens, HLE",1.43 µM
same,IC50,"GP5d; Homo sapiens, GP5d",> 16 µM
same,IC50,"LN-405; Homo sapiens, LN-405",> 16 µM
same,IC50,"KMS-12-PE; Homo sapiens, KMS-12-PE",> 16 µM
same,IC50,"NCI-H2170; Homo sapiens, NCI-H2170",> 16 µM
same,IC50,"HN; Homo sapiens, HN",> 16 µM
same,IC50,"SJRH30; Homo sapiens, SJRH30",> 16 µM
same,IC50,"EHEB; Homo sapiens, EHEB",> 16 µM
same,IC50,"HCC1954; Homo sapiens, HCC1954",> 16 µM
same,IC50,"SAOS-2; Homo sapiens, SAOS-2",> 16 µM
same,IC50,"HGC-27; Homo sapiens, HGC-27",1.31 µM
same,IC50,"HOS; Homo sapiens, HOS",1.97 µM
same,IC50,"SNU-449; Homo sapiens, SNU-449",> 16 µM
same,IC50,"SIG-M5; Homo sapiens, SIG-M5",4.88 µM
BLEOMYCIN,IC50,SW1710; sw1710,0.295 µM
same,IC50,HPAF-II; hpaf-ii,233 µM
same,IC50,NCI-H2087; nci-h2087,2.35 µM
same,IC50,KP-N-YN; kp-n-yn,26.3 µM
same,IC50,NCI-H889; nci-h889,513 µM
same,IC50,MHH-ES-1; mhh-es-1,0.0436 µM
same,IC50,LU-165; lu-165,41.8 µM
same,IC50,CAL-27; cal-27,8.07 µM
same,IC50,KYSE-410; kyse-410,8.15 µM
same,IC50,MKN-28; mkn-28,0.00108 µM
same,IC50,RO82-W-1; ro82-w-1,339 µM
same,IC50,Capan-2; capan-2,24.2 µM
same,IC50,NCI-H1793; nci-h1793,27.2 µM
same,IC50,T47D; t47d,168 µM
same,IC50,Hs-578T; hs-578-t,344 µM
same,IC50,NCI-H2081; nci-h2081,221 µM
same,IC50,CHL-1; chl-1,0.732 µM
same,IC50,NCI-H2196; nci-h2196,22.8 µM
same,IC50,HCT-15; hct-15,0.0951 µM
same,IC50,P12-Ichikawa; p12-ichikawa,5.55 µM
same,IC50,NB1; nb1,11.6 µM
same,IC50,SK-MEL-24; sk-mel-24,23.3 µM
same,IC50,CAMA-1; cama-1,17.5 µM
same,IC50,NCI-H650; nci-h650,0.000587 µM
same,IC50,SNU-16; snu-16,16100 µM
same,IC50,NCI-H1703; nci-h1703,0.0161 µM
same,IC50,PC-3; pc-3,13.3 µM
same,IC50,SAS; sas,3.26 µM
same,IC50,LU-99A; lu-99a,0.00422 µM
same,IC50,BC-3; bc-3,0.521 µM
same,IC50,HLE; hle,4 µM
same,IC50,GP5d; gp5d,15.6 µM
same,IC50,LN-405; ln-405,402 µM
same,IC50,KMS-12-PE; kms-12-pe,2530 µM
same,IC50,NCI-H2170; nci-h2170,0.162 µM
same,IC50,HN; hn,29.1 µM
same,IC50,SJRH30; sjrh30,0.414 µM
same,IC50,EHEB; eheb,1.61 µM
same,IC50,HCC1954; hcc1954,84.2 µM
same,IC50,SAOS-2; saos-2,0.172 µM
same,IC50,HGC-27; hgc-27,2.84 µM
same,IC50,HOS; hos,0.56 µM
same,IC50,SNU-449; snu-449,0.389 µM
same,IC50,SIG-M5; sig-m5,0.586 µM
